tested on: not listed separately; assay: DRUGMATRIX: ATPase, Na+/K+ enzyme inhibition (substrate: ATP); type: tissue-based, Sus scrofa, Heart; conditions: Not Active = under 50% inhibition at 10 µM

**Q.** What does the source list for `Nc1nc(N)c2nc(CNc3ccc(C(=O)N[C@@H](CCC(=O)O)C(=O)O)cc3)cnc2n1` [AMINOPTERIN]?
**A.** IC50: Not Active; Ki: Not Active

**Q.** Which IC50 does the source give for `Nc1ccc(Cc2ccc(N)cc2)cc1` here?
**A.** Its IC50 is “Not Active”.

**Q.** And the Ki?
**A.** The Ki was “Not Active”.

**Q.** For `COc1ccccc1OCCNCC(O)COc1cccc2[nH]c3ccccc3c12` (stereo not given) [CARVEDILOL], which IC50 is on record?
**A.** The IC50 was “Not Active”.

**Q.** What about the Ki of the same compound?
**A.** Its Ki is “Not Active”.

**Q.** What does the source list for `CCN1CCN(c2cc3c(cc2F)c(=O)c(C(=O)O)cn3C2CC2)CC1` [ENROFLOXACIN]?
**A.** IC50: Not Active; Ki: Not Active

**Q.** Which IC50 does the source give for `CC(C)Cc1ccc([C@H](C)C(=O)O)cc1` [DEXIBUPROFEN] here?
**A.** The IC50 was “Not Active”.

**Q.** What about the Ki of the same compound?
**A.** The Ki was “Not Active”.

tested on: not listed separately; assay: DRUGMATRIX: Atrial Natriuretic Factor (ANF) radioligand binding (ligand: [125I] ANF (rat)); type: cell membranes, Cavia porcellus, Dunkin-Hartley, Adrenal gland, Membrane; conditions: Not Active = under 50% inhibition at 10 µM

**Q.** What does the source list for `Nc1nc(N)c2nc(CNc3ccc(C(=O)N[C@@H](CCC(=O)O)C(=O)O)cc3)cnc2n1` [AMINOPTERIN]?
**A.** IC50: Not Active; Ki: Not Active

**Q.** For `Nc1ccc(Cc2ccc(N)cc2)cc1`, which IC50 is on record?
**A.** The IC50 was “Not Active”.

**Q.** And the Ki?
**A.** Its Ki is “Not Active”.

**Q.** What does the source list for `COc1ccccc1OCCNCC(O)COc1cccc2[nH]c3ccccc3c12` (stereo not given) [CARVEDILOL]?
**A.** IC50: Not Active; Ki: Not Active

**Q.** What does the source list for `CCN1CCN(c2cc3c(cc2F)c(=O)c(C(=O)O)cn3C2CC2)CC1` [ENROFLOXACIN]?
**A.** IC50: Not Active; Ki: Not Active

**Q.** Which results are given for `CC(C)Cc1ccc([C@H](C)C(=O)O)cc1` [DEXIBUPROFEN]?
**A.** IC50: Not Active; Ki: Not Active

tested on: not listed separately; assay: DRUGMATRIX: Calcium Channel Type L, Phenylalkylamine radioligand binding (ligand: [3H] (-)-Desmethoxyverapamil (D-888)); type: cell membranes, Rattus norvegicus, Wistar, Brain, Membrane; conditions: Not Active = under 50% inhibition at 10 µM

**Q.** With `Nc1nc(N)c2nc(CNc3ccc(C(=O)N[C@@H](CCC(=O)O)C(=O)O)cc3)cnc2n1` [AMINOPTERIN] as the compound, how does the IC50 read?
**A.** Its IC50 is “Not Active”.

**Q.** And the Ki?
**A.** Its Ki is “Not Active”.

**Q.** Which IC50 does the source give for `Nc1ccc(Cc2ccc(N)cc2)cc1` here?
**A.** The IC50 was “Not Active”.

**Q.** And the Ki?
**A.** Its Ki is “Not Active”.

**Q.** Which results are given for `CCN1CCN(c2cc3c(cc2F)c(=O)c(C(=O)O)cn3C2CC2)CC1` [ENROFLOXACIN]?
**A.** IC50: Not Active; Ki: Not Active

**Q.** With `CC(C)Cc1ccc([C@H](C)C(=O)O)cc1` [DEXIBUPROFEN] as the compound, how does the IC50 read?
**A.** Its IC50 is “Not Active”.

**Q.** And the Ki?
**A.** Its Ki is “Not Active”.

same assay, conditions: Not Active = under 50% inhibition at 10 µM; read-out: IC50

**Q.** Which IC50 does the source give for `COc1ccccc1OCCNCC(O)COc1cccc2[nH]c3ccccc3c12` (stereo not given) [CARVEDILOL] here?
**A.** Its IC50 is 0.389 µM.

same assay, conditions: Not Active = under 50% inhibition at 10 µM; read-out: Ki

**Q.** With `COc1ccccc1OCCNCC(O)COc1cccc2[nH]c3ccccc3c12` (stereo not given) [CARVEDILOL] as the compound, how does the Ki read?
**A.** The Ki was 0.378 µM.

target: T1, C-X-C chemokine receptor type 2 (Homo sapiens, UniProt P25025); type: cell membranes, CHO-K1, Membrane; conditions: cho-k1; further: in other assays of this panel Not Active means under 50% inhibition at 10 µM
T1 sequence (P25025 whole entry): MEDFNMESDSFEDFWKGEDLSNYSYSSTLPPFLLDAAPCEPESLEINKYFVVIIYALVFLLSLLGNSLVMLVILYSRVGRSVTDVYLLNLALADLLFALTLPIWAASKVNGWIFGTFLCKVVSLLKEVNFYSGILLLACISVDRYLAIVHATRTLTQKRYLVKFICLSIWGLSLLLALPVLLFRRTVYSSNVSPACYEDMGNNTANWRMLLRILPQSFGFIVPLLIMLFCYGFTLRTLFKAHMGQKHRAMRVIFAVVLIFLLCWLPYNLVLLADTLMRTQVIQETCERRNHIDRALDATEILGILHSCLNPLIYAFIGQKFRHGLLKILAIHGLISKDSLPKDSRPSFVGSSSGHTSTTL

**Q.** With `Nc1nc(N)c2nc(CNc3ccc(C(=O)N[C@@H](CCC(=O)O)C(=O)O)cc3)cnc2n1` [AMINOPTERIN] as the compound, how does the IC50 read?
**A.** Its IC50 is “Not Active”.

**Q.** Which IC50 does the source give for `Nc1ccc(Cc2ccc(N)cc2)cc1` here?
**A.** The IC50 was “Not Active”.

**Q.** Which IC50 does the source give for `COc1ccccc1OCCNCC(O)COc1cccc2[nH]c3ccccc3c12` (stereo not given) [CARVEDILOL] here?
**A.** The IC50 was “Not Active”.

**Q.** Which IC50 does the source give for `CCN1CCN(c2cc3c(cc2F)c(=O)c(C(=O)O)cn3C2CC2)CC1` [ENROFLOXACIN] here?
**A.** Its IC50 is “Not Active”.

**Q.** For `CC(C)Cc1ccc([C@H](C)C(=O)O)cc1` [DEXIBUPROFEN], which IC50 is on record?
**A.** The IC50 was “Not Active”.

tested on: not listed separately; assay: DRUGMATRIX: Glutamate, NMDA, Agonism radioligand binding (ligand: [3H] CGP-39653); type: cell membranes, Rattus norvegicus, Wistar, Cerebral cortex, Membrane; conditions: Not Active = under 50% inhibition at 10 µM

**Q.** For `Nc1nc(N)c2nc(CNc3ccc(C(=O)N[C@@H](CCC(=O)O)C(=O)O)cc3)cnc2n1` [AMINOPTERIN], which IC50 is on record?
**A.** Its IC50 is “Not Active”.

**Q.** What about the Ki of the same compound?
**A.** Its Ki is “Not Active”.

**Q.** Which results are given for `Nc1ccc(Cc2ccc(N)cc2)cc1`?
**A.** IC50: Not Active; Ki: Not Active

**Q.** For `COc1ccccc1OCCNCC(O)COc1cccc2[nH]c3ccccc3c12` (stereo not given) [CARVEDILOL], which IC50 is on record?
**A.** The IC50 was “Not Active”.

**Q.** And the Ki?
**A.** The Ki was “Not Active”.

**Q.** For `CCN1CCN(c2cc3c(cc2F)c(=O)c(C(=O)O)cn3C2CC2)CC1` [ENROFLOXACIN], which IC50 is on record?
**A.** The IC50 was “Not Active”.

**Q.** And the Ki?
**A.** The Ki was “Not Active”.

**Q.** For `CC(C)Cc1ccc([C@H](C)C(=O)O)cc1` [DEXIBUPROFEN], which IC50 is on record?
**A.** Its IC50 is “Not Active”.

**Q.** And the Ki?
**A.** The Ki was “Not Active”.

target: T2, Nitric oxide synthase, inducible (Mus musculus, UniProt P29477); parameters: species or system Escherichia coli; conditions: not given;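 further: inhibition of iNOS enzyme activity measured with L-arginine as substrate; in other assays of this panel Not Active means under 50% inhibition at 10 µM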
T2 sequence (P29477 whole entry): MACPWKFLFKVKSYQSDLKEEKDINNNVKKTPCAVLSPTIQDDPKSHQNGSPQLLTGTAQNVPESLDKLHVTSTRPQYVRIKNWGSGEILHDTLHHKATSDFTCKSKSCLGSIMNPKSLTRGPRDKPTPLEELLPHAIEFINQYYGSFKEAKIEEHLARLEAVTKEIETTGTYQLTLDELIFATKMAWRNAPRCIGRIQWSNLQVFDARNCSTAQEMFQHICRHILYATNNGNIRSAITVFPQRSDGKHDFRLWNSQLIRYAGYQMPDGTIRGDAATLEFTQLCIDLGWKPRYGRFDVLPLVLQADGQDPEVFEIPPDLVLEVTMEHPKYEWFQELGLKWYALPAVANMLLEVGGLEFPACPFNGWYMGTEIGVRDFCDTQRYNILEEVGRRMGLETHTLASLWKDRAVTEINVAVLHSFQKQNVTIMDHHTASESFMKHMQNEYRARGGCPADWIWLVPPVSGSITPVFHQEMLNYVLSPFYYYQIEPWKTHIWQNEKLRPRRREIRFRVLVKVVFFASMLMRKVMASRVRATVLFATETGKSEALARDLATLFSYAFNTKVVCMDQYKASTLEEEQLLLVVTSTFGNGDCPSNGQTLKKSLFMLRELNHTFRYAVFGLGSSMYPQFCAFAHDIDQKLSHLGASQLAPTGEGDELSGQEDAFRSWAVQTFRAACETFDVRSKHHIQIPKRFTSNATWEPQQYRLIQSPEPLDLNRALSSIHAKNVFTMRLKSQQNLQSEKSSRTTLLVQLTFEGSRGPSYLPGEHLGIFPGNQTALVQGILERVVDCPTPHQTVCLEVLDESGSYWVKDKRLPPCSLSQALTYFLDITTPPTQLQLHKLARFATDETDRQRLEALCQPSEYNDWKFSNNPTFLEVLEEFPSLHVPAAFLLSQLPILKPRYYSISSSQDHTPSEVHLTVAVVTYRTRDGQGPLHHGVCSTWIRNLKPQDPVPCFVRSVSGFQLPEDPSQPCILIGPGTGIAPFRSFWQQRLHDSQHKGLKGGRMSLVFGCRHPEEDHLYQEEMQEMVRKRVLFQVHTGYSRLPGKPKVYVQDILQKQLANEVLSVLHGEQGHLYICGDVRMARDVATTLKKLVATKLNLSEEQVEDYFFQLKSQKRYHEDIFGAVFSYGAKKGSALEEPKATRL

**Q.** For `Nc1nc(N)c2nc(CNc3ccc(C(=O)N[C@@H](CCC(=O)O)C(=O)O)cc3)cnc2n1` [AMINOPTERIN], which IC50 is on record?
**A.** The IC50 was “Not Active”.

**Q.** With `Nc1ccc(Cc2ccc(N)cc2)cc1` as the compound, how does the IC50 read?
**A.** The IC50 was “Not Active”.

**Q.** With `COc1ccccc1OCCNCC(O)COc1cccc2[nH]c3ccccc3c12` (stereo not given) [CARVEDILOL] as the compound, how does the IC50 read?
**A.** Its IC50 is “Not Active”.

**Q.** For `CCN1CCN(c2cc3c(cc2F)c(=O)c(C(=O)O)cn3C2CC2)CC1` [ENROFLOXACIN], which IC50 is on record?
**A.** Its IC50 is “Not Active”.

**Q.** With `CC(C)Cc1ccc([C@H](C)C(=O)O)cc1` [DEXIBUPROFEN] as the compound, how does the IC50 read?
**A.** The IC50 was “Not Active”.

target: Delta-type opioid receptor (Homo sapiens, UniProt P41143); type: cell membranes, HEK293, Membrane; conditions: hek293; further: in other assays of this panel Not Active means under 50% inhibition at 10 µM
Sequence (P41143 whole entry): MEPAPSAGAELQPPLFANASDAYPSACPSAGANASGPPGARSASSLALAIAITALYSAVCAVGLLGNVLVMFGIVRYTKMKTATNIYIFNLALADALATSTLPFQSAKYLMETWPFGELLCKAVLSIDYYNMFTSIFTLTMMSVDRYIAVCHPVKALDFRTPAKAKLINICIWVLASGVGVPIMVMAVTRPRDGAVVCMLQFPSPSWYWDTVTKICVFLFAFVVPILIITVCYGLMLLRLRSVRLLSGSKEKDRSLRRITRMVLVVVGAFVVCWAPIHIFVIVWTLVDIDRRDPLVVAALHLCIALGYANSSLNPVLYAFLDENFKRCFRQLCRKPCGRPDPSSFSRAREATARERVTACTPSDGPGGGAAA

**Q.** For `Nc1nc(N)c2nc(CNc3ccc(C(=O)N[C@@H](CCC(=O)O)C(=O)O)cc3)cnc2n1` [AMINOPTERIN], which IC50 is on record?
**A.** Its IC50 is “Not Active”.

**Q.** With `Nc1ccc(Cc2ccc(N)cc2)cc1` as the compound, how does the IC50 read?
**A.** The IC50 was “Not Active”.

**Q.** For `COc1ccccc1OCCNCC(O)COc1cccc2[nH]c3ccccc3c12` (stereo not given) [CARVEDILOL], which IC50 is on record?
**A.** Its IC50 is “Not Active”.

**Q.** With `CCN1CCN(c2cc3c(cc2F)c(=O)c(C(=O)O)cn3C2CC2)CC1` [ENROFLOXACIN] as the compound, how does the IC50 read?
**A.** The IC50 was “Not Active”.

**Q.** For `CC(C)Cc1ccc([C@H](C)C(=O)O)cc1` [DEXIBUPROFEN], which IC50 is on record?
**A.** Its IC50 is “Not Active”.

— ChEMBL document CHEMBL1909046, “DrugMatrix in vitro pharmacology data”
